System: MV-4-11 cells
Experiment: Gene expression microarray analysis (Affymetrix PrimeView) and GSEA
Type: cell-based, human
Design: RFU PODN (11730768_x_at) / Fold change /veh PODN (11730768_x_at) / RFU LINC00158 (11744669_a_at) / Fold change /veh LINC00158 (11744669_a_at) / RFU DUSP10 (11751237_a_at) / Fold change /veh DUSP10 (11751237_a_at) / RFU ID3 (11757404_x_at) / Fold change /veh ID3 (11757404_x_at) / RFU PLEKHG5 (11737974_s_at) / Fold change /veh PLEKHG5 (11737974_s_at) / RFU LRRC4B (11730491_at) / Fold change /veh LRRC4B (11730491_at) / RFU GIMAP4 (11747438_a_at) / Fold change /veh GIMAP4 (11747438_a_at) / RFU KRT8 (11758183_x_at) / Fold change /veh KRT8 (11758183_x_at) / RFU CNN1 (11734310_a_at) / Fold change /veh CNN1 (11734310_a_at) / RFU VPS37D (11726825_at) / Fold change /veh VPS37D (11726825_at) / RFU C10orf10 (11716522_x_at) / Fold change /veh C10orf10 (11716522_x_at) / RFU KIR2DL2 /// KIR2DL4 /// KIR2DL5A /// KIR2DL5B /// KIR2DS1 /// KIR2DS2 /// KIR2DS3 /// KIR2DS4 /// KIR3DL3 /// KIR3DL3 /// KIR3DS1 (11738374_at) / Fold change /veh KIR2DL2 /// KIR2DL4 /// KIR2DL5A /// KIR2DL5B /// KIR2DS1 /// KIR2DS2 /// KIR2DS3 /// KIR2DS4 /// KIR3DL3 /// KIR3DL3 /// KIR3DS1 (11738374_at) / RFU C1QL1 (11718748_at) / Fold change /veh C1QL1 (11718748_at) / RFU TMPRSS4 (11747572_a_at) / Fold change /veh TMPRSS4 (11747572_a_at) / RFU HAMP (11756126_x_at) / Fold change /veh HAMP (11756126_x_at) / RFU RNFT2 (11725882_a_at) / Fold change /veh RNFT2 (11725882_a_at) / RFU NR4A2 (11747474_a_at) / Fold change /veh NR4A2 (11747474_a_at) / RFU ABCC12 (11746883_a_at) / Fold change /veh ABCC12 (11746883_a_at) / RFU TMEM136 (11760407_x_at) / Fold change /veh TMEM136 (11760407_x_at) / RFU CLDN22 /// WWC2 (11732394_at) / Fold change /veh CLDN22 /// WWC2 (11732394_at) / RFU HLA-DPB1 (11760878_x_at) / Fold change /veh HLA-DPB1 (11760878_x_at) / RFU SPINT1 (11716480_a_at) / Fold change /veh SPINT1 (11716480_a_at) / RFU GAP43 (11754022_s_at) / Fold change /veh GAP43 (11754022_s_at) / RFU A4GNT (11735810_at) / Fold change /veh A4GNT (11735810_at) / RFU PRB3 (11715151_x_at) / Fold change /veh PRB3 (11715151_x_at) / RFU TUBB4B (11761932_at) / Fold change /veh TUBB4B (11761932_at) / RFU CAPN14 (11732068_a_at) / Fold change /veh CAPN14 (11732068_a_at) / RFU TMCC2 (11721928_a_at) / Fold change /veh TMCC2 (11721928_a_at) / RFU IRGQ (11745062_a_at) / Fold change /veh IRGQ (11745062_a_at) / RFU FAM174B (11720279_a_at) / Fold change /veh FAM174B (11720279_a_at) / RFU TMPRSS4 (11748680_a_at) / Fold change /veh TMPRSS4 (11748680_a_at) / RFU FAM212B (11763350_a_at) / Fold change /veh FAM212B (11763350_a_at) / RFU PLEKHG5 (11743358_a_at) / Fold change /veh PLEKHG5 (11743358_a_at) / RFU ZSCAN30 (11745921_a_at) / Fold change /veh ZSCAN30 (11745921_a_at) / RFU CMKLR1 (11741424_a_at) / Fold change /veh CMKLR1 (11741424_a_at) / RFU LOC101060620 /// MAPK8IP1 (11723275_at) / Fold change /veh LOC101060620 /// MAPK8IP1 (11723275_at) / RFU SPTSSB (11747773_x_at) / Fold change /veh SPTSSB (11747773_x_at) / RFU PRSS12 (11739890_at) / Fold change /veh PRSS12 (11739890_at) / RFU BIN1 (11741810_x_at) / Fold change /veh BIN1 (11741810_x_at) / RFU WNT11 (11732464_a_at) / Fold change /veh WNT11 (11732464_a_at) / RFU C10orf10 (11716521_a_at) / Fold change /veh C10orf10 (11716521_a_at) / RFU C5orf56 (11738089_at) / Fold change /veh C5orf56 (11738089_at) / RFU CYB561 (11721691_x_at) / Fold change /veh CYB561 (11721691_x_at) / RFU ANKRD19P (11752326_a_at) / Fold change /veh ANKRD19P (11752326_a_at) / RFU OR2T12 /// OR2T33 /// OR2T8 (11738714_s_at) / Fold change /veh OR2T12 /// OR2T33 /// OR2T8 (11738714_s_at) / RFU VCAN (11748164_a_at) / Fold change /veh VCAN (11748164_a_at) / RFU JSRP1 (11732532_at) / Fold change /veh JSRP1 (11732532_at) / RFU KRTAP10-11 (11738290_x_at) / Fold change /veh KRTAP10-11 (11738290_x_at) / RFU MYO3A (11730013_a_at) / Fold change /veh MYO3A (11730013_a_at) / RFU EBF3 (11725865_a_at) / Fold change /veh EBF3 (11725865_a_at) / RFU CAMK2N1 (11719241_x_at) / Fold change /veh CAMK2N1 (11719241_x_at) / RFU C5orf56 (11738088_a_at) / Fold change /veh C5orf56 (11738088_a_at) / RFU OLFML3 (11715873_a_at) / Fold change /veh OLFML3 (11715873_a_at) / RFU LOC100653217 /// NTM (11731650_a_at) / Fold change /veh LOC100653217 /// NTM (11731650_a_at) / RFU MAPK11 (11762145_a_at) / Fold change /veh MAPK11 (11762145_a_at) / RFU FIZ1 (11724087_x_at) / Fold change /veh FIZ1 (11724087_x_at) / RFU OASL (11726364_x_at) / Fold change /veh OASL (11726364_x_at) / RFU SOX15 (11748057_x_at) / Fold change /veh SOX15 (11748057_x_at) / RFU CD79A (11719716_a_at) / Fold change /veh CD79A (11719716_a_at) / RFU HIST1H1D (11736915_at) / Fold change /veh HIST1H1D (11736915_at) / RFU CASKIN2 (11723855_a_at) / Fold change /veh CASKIN2 (11723855_a_at) / RFU LOC730098 (11760151_x_at) / Fold change /veh LOC730098 (11760151_x_at) / RFU OR4N2 (11742367_at) / Fold change /veh OR4N2 (11742367_at) / RFU PRRT2 (11749266_a_at) / Fold change /veh PRRT2 (11749266_a_at) / RFU SNX32 (11753110_a_at) / Fold change /veh SNX32 (11753110_a_at) / RFU CDHR5 (11726645_a_at) / Fold change /veh CDHR5 (11726645_a_at) / RFU RCAN1 (11760418_a_at) / Fold change /veh RCAN1 (11760418_a_at) / RFU FAM167A (11723789_a_at) / Fold change /veh FAM167A (11723789_a_at) / RFU FAM26E (11764081_at) / Fold change /veh FAM26E (11764081_at) / RFU ISYNA1 (11749810_s_at) / Fold change /veh ISYNA1 (11749810_s_at) / RFU ACY1 (11761880_at) / Fold change /veh ACY1 (11761880_at) / RFU 11764098_at / Fold change /veh 11764098_at / RFU SAMD14 (11745864_x_at) / Fold change /veh SAMD14 (11745864_x_at) / RFU NPB (11741838_a_at) / Fold change /veh NPB (11741838_a_at) / RFU TMPRSS6 (11731388_a_at) / Fold change /veh TMPRSS6 (11731388_a_at) / RFU KRTAP10-2 (11738614_at) / Fold change /veh KRTAP10-2 (11738614_at) / RFU ARHGAP8 /// PRR5-ARHGAP8 (11727945_x_at) / Fold change /veh ARHGAP8 /// PRR5-ARHGAP8 (11727945_x_at) / RFU KRTAP5-7 /// NADSYN1 (11734609_at) / Fold change /veh KRTAP5-7 /// NADSYN1 (11734609_at) / RFU RASL12 (11751679_a_at) / Fold change /veh RASL12 (11751679_a_at) / RFU CDKN2B (11736163_a_at) / Fold change /veh CDKN2B (11736163_a_at) / RFU PRF1 (11729649_at) / Fold change /veh PRF1 (11729649_at) / RFU, ZNF638 /// ZNF638-IT1 / Fold change vs veh, ZNF638 /// ZNF638-IT1 / RFU, PANK3 / Fold change vs veh, PANK3 / RFU, SH3YL1 / Fold change vs veh, SH3YL1 / RFU, ZEB2 / Fold change vs veh, ZEB2 / RFU, NRIP1 / Fold change vs veh, NRIP1 / RFU, PTTG1IP / Fold change vs veh, PTTG1IP / RFU, CAPN2 / Fold change vs veh, CAPN2 / RFU, MED14 / Fold change vs veh, MED14 / RFU, SNORA58 / Fold change vs veh, SNORA58 / RFU, C1orf63 / Fold change vs veh, C1orf63 / RFU, LRRFIP1 / Fold change vs veh, LRRFIP1 / RFU, NDUFAF7 / Fold change vs veh, NDUFAF7 / RFU, SLC12A2 / Fold change vs veh, SLC12A2 / RFU, IBTK / Fold change vs veh, IBTK / RFU, ESF1 / Fold change vs veh, ESF1 / Fold change vs veh, TMEM50B / RFU, TAOK1 / Fold change vs veh, TAOK1 / RFU, ACBD3 / Fold change vs veh, ACBD3 / RFU, TMA16 / Fold change vs veh, TMA16 / RFU, RWDD3 / Fold change vs veh, RWDD3 / RFU, BCAT1 / Fold change vs veh, BCAT1 / RFU, EDEM3 / Fold change vs veh, EDEM3 / RFU, TMEM33 / Fold change vs veh, TMEM33 / RFU, WDR75 / Fold change vs veh, WDR75 / RFU, AHCTF1 / Fold change vs veh, AHCTF1 / RFU, TFRC / Fold change vs veh, TFRC / RFU, ZDHHC17 / Fold change vs veh, ZDHHC17 / RFU, NOM1 / Fold change vs veh, NOM1 / RFU, ARL8B / Fold change vs veh, ARL8B / RFU, ZBTB11 / Fold change vs veh, ZBTB11 / RFU, TAMM41 / Fold change vs veh, TAMM41 / RFU, KIAA1704 /// LOC100996395 / Fold change vs veh, KIAA1704 /// LOC100996395 / RFU, ING1 / Fold change vs veh, ING1 / RFU, TRMT61B / Fold change vs veh, TRMT61B / RFU, FUBP3 / Fold change vs veh, FUBP3 / RFU, TP53 / Fold change vs veh, TP53 / RFU, TNKS2 / Fold change vs veh, TNKS2 / RFU, ZFP14 / Fold change vs veh, ZFP14 / RFU, ACTR2 / Fold change vs veh, ACTR2 / RFU, PPP3R1 / Fold change vs veh, PPP3R1 / RFU, PIK3R1 / Fold change vs veh, PIK3R1 / RFU, HNRNPA1 / Fold change vs veh, HNRNPA1 / RFU, RNF170 / Fold change vs veh, RNF170 / RFU, ZNF28 / Fold change vs veh, ZNF28 / RFU, RNGTT / Fold change vs veh, RNGTT / RFU, OGT / Fold change vs veh, OGT / RFU, BRD1 / Fold change vs veh, BRD1 / RFU, MARS / Fold change vs veh, MARS / RFU, ZNF655 / Fold change vs veh, ZNF655 / RFU, FAHD1 / Fold change vs veh, FAHD1 / RFU, BDP1 / Fold change vs veh, BDP1 / RFU, LRRCC1 / Fold change vs veh, LRRCC1 / RFU, ARID1A / Fold change vs veh, ARID1A / RFU, ZNF146 / Fold change vs veh, ZNF146 / RFU, ZNF330 / Fold change vs veh, ZNF330 / RFU, GPN3 / Fold change vs veh, GPN3 / RFU, C9orf123 / Fold change vs veh, C9orf123 / RFU, N4BP2L2 / Fold change vs veh, N4BP2L2 / RFU, ARFIP1 / Fold change vs veh, ARFIP1 / RFU, FAM179B / Fold change vs veh, FAM179B / RFU, BCL10 / Fold change vs veh, BCL10 / RFU, UHRF1BP1L / Fold change vs veh, UHRF1BP1L / RFU, BET1 / Fold change vs veh, BET1 / RFU, CNOT2 / Fold change vs veh, CNOT2 / RFU, ZNF268 / Fold change vs veh, ZNF268 / Fold change vs veh, ZNF507 / RFU, DGCR2 / Fold change vs veh, DGCR2 / RFU, WDSUB1 / Fold change vs veh, WDSUB1 / Fold change vs veh, HSP90B1 /// MIR3652 / RFU, ADSS / Fold change vs veh, ADSS / RFU, GK / Fold change vs veh, GK / RFU, ZNF148 / Fold change vs veh, ZNF148 / RFU, TAF9 / Fold change vs veh, TAF9 / RFU, SLC1A5 / Fold change vs veh, SLC1A5 / RFU, SLMO2 / Fold change vs veh, SLMO2 / RFU, ABCC4 / Fold change vs veh, ABCC4 / RFU, LOC101060439 /// RAP1B / Fold change vs veh, LOC101060439 /// RAP1B / RFU, RFX7 / Fold change vs veh, RFX7 / RFU, GTPBP10 / Fold change vs veh, GTPBP10 / RFU, CNEP1R1 / Fold change vs veh, CNEP1R1 / RFU, BIVM-ERCC5 /// ERCC5 / Fold change vs veh, BIVM-ERCC5 /// ERCC5 / RFU, ILF3 / Fold change vs veh, ILF3 / RFU 11762660_at / Fold change /veh 11762660_at / RFU VCAN (11757783_s_at) / Fold change /veh VCAN (11757783_s_at) / RFU DDX43 (11728927_at) / Fold change /veh DDX43 (11728927_at) / RFU KRT8 (11758188_x_at) / Fold change /veh KRT8 (11758188_x_at) / RFU NKD1 (11759106_at) / Fold change /veh NKD1 (11759106_at) / RFU SRD5A1 (11742802_a_at) / Fold change /veh SRD5A1 (11742802_a_at) / RFU TPSAB1 /// TPSB2 (11721975_s_at) / Fold change /veh TPSAB1 /// TPSB2 (11721975_s_at) / RFU GSTM3 (11746129_a_at) / Fold change /veh GSTM3 (11746129_a_at) / RFU IL23R (11737362_x_at) / Fold change /veh IL23R (11737362_x_at) / RFU TMEM51 (11727254_a_at) / Fold change /veh TMEM51 (11727254_a_at) / RFU PIWIL2 (11732686_x_at) / Fold change /veh PIWIL2 (11732686_x_at) / RFU ORM1 (11744905_x_at) / Fold change /veh ORM1 (11744905_x_at) / RFU CCDC152 (11743942_at) / Fold change /veh CCDC152 (11743942_at) / RFU ECM1 (11717891_a_at) / Fold change /veh ECM1 (11717891_a_at) / RFU IL23R (11748794_a_at) / Fold change /veh IL23R (11748794_a_at) / RFU TNFAIP8L3 (11732012_x_at) / Fold change /veh TNFAIP8L3 (11732012_x_at) / RFU MBOAT4 (11741988_at) / Fold change /veh MBOAT4 (11741988_at) / RFU 11764193_at / Fold change /veh 11764193_at / RFU TMEM53 (11763286_at) / Fold change /veh TMEM53 (11763286_at) / RFU MAGEB2 (11727129_at) / Fold change /veh MAGEB2 (11727129_at) / RFU TMEM200A (11744735_a_at) / Fold change /veh TMEM200A (11744735_a_at) / RFU CCDC152 (11751479_a_at) / Fold change /veh CCDC152 (11751479_a_at) / RFU FAM211A (11726209_a_at) / Fold change /veh FAM211A (11726209_a_at) / RFU RGS16 (11746705_a_at) / Fold change /veh RGS16 (11746705_a_at) / RFU VCAN (11755009_s_at) / Fold change /veh VCAN (11755009_s_at) / RFU RHOB (11743442_s_at) / Fold change /veh RHOB (11743442_s_at) / RFU RGS16 (11720943_a_at) / Fold change /veh RGS16 (11720943_a_at) / RFU RGS16 (11720944_at) / Fold change /veh RGS16 (11720944_at) / RFU, VPS4B / Fold change vs veh, VPS4B / RFU, CREB1 / Fold change vs veh, CREB1 / RFU, DNAJC13 / Fold change vs veh, DNAJC13 / RFU, GNAQ / Fold change vs veh, GNAQ / RFU, CDK5R1 / Fold change vs veh, CDK5R1 / RFU, ZRANB3 / Fold change vs veh, ZRANB3 / RFU, CUL4A / Fold change vs veh, CUL4A / RFU, CCNY / Fold change vs veh, CCNY / RFU, UFL1 / Fold change vs veh, UFL1 / RFU, COG3 / Fold change vs veh, COG3 / RFU, DIAPH2 / Fold change vs veh, DIAPH2 / RFU, SKA2 / Fold change vs veh, SKA2 / RFU, AFF3 / Fold change vs veh, AFF3 / RFU, LMF1 / Fold change vs veh, LMF1 / RFU, IPO11 / Fold change vs veh, IPO11 / RFU, DFFB / Fold change vs veh, DFFB / RFU, FOXP1 / Fold change vs veh, FOXP1 / RFU, CARD8 / Fold change vs veh, CARD8 / RFU, STRN3 / Fold change vs veh, STRN3 / RFU, ADK / Fold change vs veh, ADK / RFU, RASSF2 / Fold change vs veh, RASSF2 / RFU, WIPF1 / Fold change vs veh, WIPF1 / RFU, LARP1B / Fold change vs veh, LARP1B / RFU, RASA1 / Fold change vs veh, RASA1 / RFU, RB1 / Fold change vs veh, RB1 / RFU, PPFIA1 / Fold change vs veh, PPFIA1 / RFU, MAT2A / Fold change vs veh, MAT2A / RFU, CCT5 / Fold change vs veh, CCT5 / RFU, WDR92 / Fold change vs veh, WDR92 / RFU, CUX1 / Fold change vs veh, CUX1 / RFU, TTC7A / Fold change vs veh, TTC7A / RFU, TMEM135 / Fold change vs veh, TMEM135 / RFU, DEPTOR / Fold change vs veh, DEPTOR / RFU, CPM / Fold change vs veh, CPM / RFU, DNAJB6 / Fold change vs veh, DNAJB6 / RFU, CACNA2D3 / Fold change vs veh, CACNA2D3 / RFU, DTX4 / Fold change vs veh, DTX4 / RFU, TFCP2 / Fold change vs veh, TFCP2 / RFU, GMCL1 /// GMCL1P1 / Fold change vs veh, GMCL1 /// GMCL1P1 / RFU, AEBP2 / Fold change vs veh, AEBP2 / RFU, SNHG1 /// SNORD22 /// SNORD25 /// SNORD26 /// SNORD27 /// SNORD28 /// SNORD29 /// SNORD31 / Fold change vs veh, SNHG1 /// SNORD22 /// SNORD25 /// SNORD26 /// SNORD27 /// SNORD28 /// SNORD29 /// SNORD31 / Fold change (Aza/veh), C12orf56 (ProbeSet 11735607_a_at) / Fold change (ACY-1035/veh), C12orf56 (ProbeSet 11735607_a_at) / Fold change (Aza/veh), FGFR1OP (ProbeSet 11751329_s_at) / Fold change (ACY-1035/veh), FGFR1OP (ProbeSet 11751329_s_at) / Fold change (Aza/veh), VPS36 (ProbeSet 11739960_a_at) / Fold change (ACY-1035/veh), VPS36 (ProbeSet 11739960_a_at) / RFU SYPL1 (11715823_x_at) / Fold change /veh SYPL1 (11715823_x_at) / RFU IGFBP7 (11715501_s_at) / Fold change /veh IGFBP7 (11715501_s_at) / RFU REEP3 (11722064_at) / Fold change /veh REEP3 (11722064_at) / RFU IGLL1 (11728026_x_at) / Fold change /veh IGLL1 (11728026_x_at): dose or concentration left out as unconfirmed
Conditions: MV-4-11 cells, 48 hours

Nc1ccc(-c2cccs2)cc1NC(=O)c1ccc2c(c1)cc(C1CC1)n2CCN1CCOCC1 [ACY-1035]
Fold change /veh MYO3A (11730013_a_at): 1.10

— publication PMC5218480 (PLoS ONE, 2017)
